Source: patent US9663495B2 (YUHAN CORPORATION, priority 2013, dated 2017)

Tests used:
GPR119 [1] = target: T1, GPR119 (Homo sapiens, UniProt Q8TDV5); assay: cAMP Accumulation Assay (GPR119 CRE-bla CHO-K1 cells, LiveBLAzer-FRET B/G); assay type: cell-based; conditions: for EC50: 5 hours incubation; for Emax (Fold): maximum activity, response ratio versus non-treated control group
T1 construct: host or cells: CHO-K1 (GPR119 CRE-bla, doxycycline-induced)
T1 sequence (Q8TDV5 1-335): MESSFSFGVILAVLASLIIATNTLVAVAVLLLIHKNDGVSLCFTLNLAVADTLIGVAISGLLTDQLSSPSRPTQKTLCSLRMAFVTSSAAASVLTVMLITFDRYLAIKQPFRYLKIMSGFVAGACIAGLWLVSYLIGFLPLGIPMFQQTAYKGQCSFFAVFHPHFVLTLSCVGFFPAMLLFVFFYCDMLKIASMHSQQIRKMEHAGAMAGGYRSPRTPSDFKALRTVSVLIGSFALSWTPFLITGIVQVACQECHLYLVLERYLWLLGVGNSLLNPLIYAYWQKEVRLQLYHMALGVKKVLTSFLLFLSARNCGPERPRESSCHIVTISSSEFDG

male C57BL/6 mice = assay: Oral Glucose Tolerance Test (OGTT); assay type: in vivo; design: concentration or dose not given beside the values; conditions: fasted male C57BL/6 mice, oral administration 30 minutes before oral glucose; AUCglucose 0-120 minutes versus negative control group
Description: The oral glucose tolerance test of the compounds according to the present invention was carried out according to the procedures disclosed in Andrikopoulos S, Blair A R, Deluca N, Fam B C, Proietto J, Am J Physiol Endocrinol Metab. 2008, Vol 295, E1323-1332. Briefly, male C57BL/6 mice at 8 to 9 weeks of age having 20 g to 25 g of body weight (Orient Bio Inc. Korea) were allowed to acclimatize to the surroundings (temperature: 20±2° C., humidity: 40-60%, light/dark cycle: 12 hours) for 1 week. During the acclimatization, the mice were given ad libitum access to feed and water. The mice were fasted from 18 hours before the test, except for allowing free access to water. After measuring the mice′ body weights and blood sugar levels, they were divided into test groups so as to have similar blood sugar levels. The mice were orally administered with a mixture of test compound and the diluent (0.5% solution of MC1500 (Sigma)). At 30 minutes after the administration, the mice were also orally administered with 20% glucose solution in an amount of 0.1 ml per 10 g of body weight. The blood samples were taken from the tail vain at 0 (right before the administration of the glucose solution), 15, 30, 60, 90, and 120 minutes after the administration of the glucose solution; and the blood sugar levels thereof were measured with a blood glucose test meter (GlucoDr. AGM-3000, All Medicus Co. Ltd.). The graph for blood sugar level on time for each test compound was plotted from the respective blood sugar values; and then area under the curve (AUCglucose) was determined. The inhibition rate of blood sugar (%) was calculated from the following formula. Inhibition rate of blood sugar (%)=[(AUCglucose of the negative control group−AUCglucose of the test group)/AUCglucose of the negative control group]×100

GPR119 [2] = target: T1, GPR119; assay: cAMP Accumulation Assay (GPR119 CRE-bla CHO-K1 cells, LiveBLAzer-FRET B/G); assay type: cell-based; conditions: (Emax of the test compound/Emax of MBX-2982)x100, 5 hours incubation

| EC50 (GPR119 [1]) | Emax (Fold) (GPR119 [1]) | Emax (% RR) (GPR119 [2]) | Structure (SMILES) | Inhibition rate of blood sugar (%) (male C57BL/6 mice) |
| --- | --- | --- | --- | --- |
| 9.8 nM | 3.8 Fold | 127.3 % RR | CC(C)c1nc(C2CCN(c3ncc(-c4ccc(-n5cnn([C@H]6CCOC6)c5=O)cc4)cc3C#N)CC2)no1 [Example 71, (S)-2-(4-(5-isopropyl-1,2,4-oxadiazol-3-yl)piperidin-1-yl)-5-(4-(5-oxo-1-(tetrahydrofuran-3-yl)-1H-1,2,4-triazol-4(5H)-yl)phenyl)nicotinonitrile] | 20.4% |
| 3.2 nM | 3.1 Fold | 110.0 % RR | CCc1cnc(N2CCN(c3ncc(-c4ccc(-n5cnn(CC(=O)N6CCCC6)c5=O)c(F)c4)cc3C#N)CC2)nc1 [Example 37, 2-(4-(5-ethylpyrimidin-2-yl)piperazin-1-yl)-5-(3-fluoro-4-(5-oxo-1-(2-oxo-2-(pyrrolidin-1-yl)ethyl)-1H-1,2,4-triazol-4(5H)-yl)phenyl)nicotinonitrile] | 16.5% |
| – | 3.8 Fold | 130.9 % RR | CCc1cnc(N2CCN(c3ncc(-c4ccc(-n5cnn(C(C)C)c5=O)c(F)c4)cc3C#N)CC2)nc1.Cl [Example 43, 2-(4-(5-ethylpyrimidin-2-yl)piperazin-1-yl)-5-(3-fluoro-4-(1-isopropyl-5-oxo-1H-1,2,4-triazol-4(5H)-yl)phenyl)nicotinonitrile hydrochloride] | 25.2% |
| 5 nM | 3.1 Fold | 113.4 % RR | CCc1cnc(N2CCN(c3ncc(-c4ccc(-n5cnn([C@@H]6CCOC6)c5=O)cc4)cc3C#N)CC2)nc1 [Example 41, (R)-2-(4-(5-ethylpyrimidin-2-yl)piperazin-1-yl)-5-(4-(5-oxo-1-(tetrahydrofuran-3-yl)-1H-1,2,4-triazol-4(5H)-yl)phenyl)nicotinonitrile] | 18.8% |
| 36 nM | 3.5 Fold | 120.0 % RR | CC(C)c1nc(C2CCN(c3ncc(-c4ccc(-n5cnn([C@@H]6CCOC6)c5=O)cc4)cc3C#N)CC2)no1 [Example 70, (R)-2-(4-(5-isopropyl-1,2,4-oxadiazol-3-yl)piperidin-1-yl)-5-(4-(5-oxo-1-(tetrahydrofuran-3-yl)-1H-1,2,4-triazol-4(5H)-yl)phenyl)nicotinonitrile] | 25.2% |
